PubChem BioAssay (NCI)
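At the GI50, growth is halved. TGI: total growth inhibition.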

Tests used:
Experiment in all cases: NCI-60 cell line screen, 384-well format; in the data active = GI50 below about 0.43 µM; inactive = the rest
[1] = test system: NCI-H460 NSCLC
[2] = test system: NCI-H322M lung
[3] = test system: MDA-MB-231 breast
[4] = test system: PC-3 prostate
[5] = test system: SW-620 colon
[6] = test system: A549 NSCLC
[7] = test system: HOP-62 NSCLC
[8] = test system: RXF 393 renal
[9] = test system: HS 578T breast
[10] = test system: OVCAR-8 ovarian
[11] = test system: MCF7 breast
[12] = test system: A498 renal
[13] = test system: U251 glioblastoma
[14] = test system: HOP-92 NSCLC
[15] = test system: EKVX NSCLC
[16] = test system: T-47D breast
[17] = test system: ACHN renal
[18] = test system: DU-145 prostate
[19] = test system: HT29 colon
[20] = test system: MALME-3M melanoma
[21] = test system: OVCAR-3 ovarian
[22] = test system: HL-60(TB) leukemia
[23] = test system: HCC-2998 colon
[24] = test system: SN12C renal
[25] = test system: M14 melanoma
[26] = test system: NCI-H522 lung
[27] = test system: SF-295 CNS
[28] = test system: 786-0 renal
[29] = test system: SF-539 CNS
[30] = test system: NCI-H23 lung
[31] = test system: OVCAR-5 ovarian
[32] = test system: SNB-19 CNS
[33] = test system: TK-10 renal
[34] = test system: MOLT-4 leukemia
[35] = test system: UACC-62 melanoma
[36] = test system: SK-MEL-5 melanoma
[37] = test system: SNB-75 CNS
[38] = test system: IGROV1 ovarian
[39] = test system: CAKI-1 renal
[40] = test system: OVCAR-4 ovarian
[41] = test system: K-562 leukemia
[42] = test system: HCT-15 colon
[43] = test system: CCRF-CEM leukemia
[44] = test system: BT-549 breast
[45] = test system: SK-MEL-28 melanoma
[46] = test system: KM12 colon
[47] = test system: UACC-257 melanoma
[48] = test system: NCI/ADR-RES ovarian
[49] = test system: NCI-H226 lung
[50] = test system: UO-31 renal
[51] = test system: COLO 205 colon
[52] = test system: LOX IMVI melanoma
[53] = test system: SK-OV-3 ovarian
[54] = test system: MDA-MB-468 breast
[55] = test system: SF-268 CNS
[56] = test system: RPMI-8226 leukemia
[57] = test system: SR leukemia
[58] = test system: MDA-MB-435 melanoma

CN(C[C@@H]1COCCO1)S(=O)(=O)Nc1ccc2ccc3ncc(-c4cnn(C)c4)cc3c(=O)c2c1
73.6 µM: TGI [20]
9 µM: TGI [38]
8.1 µM: TGI [9]
5.21 µM: TGI [56]
21 µM: TGI [22]
5.43 µM: TGI [30]
10.9 µM: TGI [27]
active: GI50 [46] 310 nM
61 µM: TGI [40]
9.46 µM: TGI [43]
62.1 µM: TGI [1]
21.5 µM: TGI [37]
9.07 µM: TGI [26]
5.2 µM: TGI [54]
7.48 µM: TGI [57]
62.5 µM: TGI [12]
19.2 µM: TGI [36]
> 100 µM: TGI [2] | TGI [3] | TGI [4] | TGI [5] | TGI [6] | TGI [7] | TGI [8] | TGI [10] | TGI [11] | TGI [13] | TGI [15] | TGI [17] | TGI [18] | TGI [19] | TGI [21] | TGI [23] | TGI [25] | TGI [28] | TGI [31] | TGI [32] | TGI [33] | TGI [35] | TGI [39] | TGI [41] | TGI [42] | TGI [45] | TGI [46] | TGI [47] | TGI [49] | TGI [50] | TGI [51] | TGI [52] | TGI [55] | TGI [58]
3.03 µM: TGI [34]
inactive: GI50 [1] 3.45 µM | GI50 [2] 4.99 µM | GI50 [3] 8.45 µM | GI50 [4] 5.71 µM | GI50 [5] 7.12 µM | GI50 [6] 8.08 µM | GI50 [7] 5.14 µM | GI50 [8] 5.6 µM | GI50 [9] 1990 nM | GI50 [10] 6.02 µM | GI50 [11] 5.9 µM | GI50 [12] 808 nM | GI50 [13] 6.34 µM | GI50 [14] 2080 nM | GI50 [15] 16.2 µM | GI50 [16] 3.5 µM | GI50 [17] 2560 nM | GI50 [18] 5.46 µM | GI50 [19] 14.4 µM | GI50 [20] 3.48 µM | GI50 [21] 12.3 µM | GI50 [22] 3.32 µM | GI50 [23] 39.6 µM | GI50 [24] 1640 nM | GI50 [25] 3.67 µM | GI50 [26] 2680 nM | GI50 [27] 1120 nM | GI50 [28] 5.58 µM | GI50 [29] 1630 nM | GI50 [30] 588 nM | GI50 [31] 24 µM | GI50 [32] 27.2 µM | GI50 [33] 8.38 µM | GI50 [34] 1580 nM | GI50 [35] 3.36 µM | GI50 [36] 2610 nM | GI50 [37] 2180 nM | GI50 [38] 2130 nM | GI50 [39] 1890 nM | GI50 [40] 3.34 µM | GI50 [41] 6.92 µM | GI50 [42] 3.09 µM | GI50 [43] 3.12 µM | GI50 [44] 2100 nM | GI50 [45] > 100 µM | GI50 [47] > 100 µM | GI50 [48] 3.56 µM | GI50 [49] 1770 nM | GI50 [50] 8.88 µM | GI50 [51] 24.4 µM | GI50 [52] 5.53 µM | GI50 [53] 1450 nM | GI50 [54] 1630 nM | GI50 [55] 5.68 µM | GI50 [56] 1360 nM | GI50 [57] 2490 nM | GI50 [58] 21.6 µM
8.8 µM: TGI [24]
10.8 µM: TGI [14]
14.5 µM: TGI [53]
25.5 µM: TGI [48]
15.2 µM: TGI [29]
45.5 µM: TGI [44]
59.5 µM: TGI [16]
